This is an account of results in US20100297109A1, “METHODS FOR INHIBITING FASCIN” (Cornell University, priority 2007, published 2010).

Molecules are shown by their SMILES. Like-named read-outs stand apart in the source and are kept apart here.

The subject of series [1] is mouse breast tumor 4T1 cells. The series is described as follows: Wound-healing assay, serum-induced migration of 4T1 cells. It counts as cell-based. The following applies: 2 μM. The procedure:
(§1) Cells. Mouse 4T1 mammary tumor cells and human MDA-MB-231 breast tumor cells were obtained from ATCC and have been described previously (Shan et al. 2005, Yang et al. 2005). 4T1 cells were cultured in RPMI 1640 medium supplemented with 10% FBS. MDA-MB-231 cells were cultured in DMEM supplemented with 10% FBS. Wound-healing assay. The wound-healing assay involves observing whether confluent cells can migrate across a scrape or wound in the cell layer. Cell migration assays were performed as described previously (Yang et al. 2005, Shan et al 2006). Tumor cells were plated in a 24-well plate coated with gelatin in standard media. After the cells grew to confluence, wounds were made in the confluent layer of cell using a sterile instrument such as a sterile pipette tip. The cells were washed with Phosphate Buffered Saline (PBS) or other sterile solutions and then the migration was induced by adding medium supplemented with 10% FBS. When the wound for the positive control closed, cells were fixed with 3.7% formaldehyde and stained with crystal violet staining solution. […] Photographs several random regions of the filter facing the second chamber are taken and the number of cells counted to calculate the average number of cells that had transmigrated.

Series [2] relates to 4T1 cells. Nature of the series: Boyden chamber cell migration assay, serum-induced migration of 4T1 cells. It counts as cell-based, mouse. The following applies: FIGS. 1C and 1D. Here is the method:
as §1, with “media.” for “media. After the cells grew to confluence, wounds were made in the confluent layer of cell using a sterile instrument such as a sterile pipette tip. The cells were washed with Phosphate Buffered Saline (PBS) or other sterile solutions and then the migration was induced by adding medium supplemented with 10% FBS. When the wound for the positive control closed, cells were fixed with 3.7% formaldehyde and stained with crystal violet staining solution.”
(§2) Boyden Chamber Cell Migration Assay. […] Three randomly selected fields (10× objectives) on the lower side of the insert were photographed, and the migrated cells were counted. The migration was expressed as either the average number of migrated cells in a field or as percentage of migrated cells in positive control. Percentage was calculated with the formula P=100×(M−Mnc)/Mpc, where P is the percentage of migrated cells, M is the number of migrated cells, Mnc is the number of migrated cells in negative controls, and Mpc is the number of migrated cells in positive controls.

The subject of series [3] is human breast tumor MDA-MB-231 cells. Nature of the series: Wound-healing assay, serum-induced migration of MDA-MB-231 cells. The following applies: 20 μM. The class given is cell-based. The procedure: as §1
Series [4] concerns mouse embryonic fibroblast (MEF) cells. The series is described as follows: Wound-healing assay, serum-induced migration of MEF cells. It counts as cell-based. Particulars: 200 μM.
In series [5] the test system is human breast tumor MDA-MB 231 cells. Nature of the series: Cell migration assay, MDA-MB-231 cells. The class given is cell-based. Here is the method: as §1, with “media.” for “media. After the cells grew to confluence, wounds were made in the confluent layer of cell using a sterile instrument such as a sterile pipette tip. The cells were washed with Phosphate Buffered Saline (PBS) or other sterile solutions and then the migration was induced by adding medium supplemented with 10% FBS. When the wound for the positive control closed, cells were fixed with 3.7% formaldehyde and stained with crystal violet staining solution.”
as §2

The test system of series [6] is human prostate tumor PC-3 cells. Nature of the series: Cell migration assay, PC-3 cells. It counts as cell-based.
Series [7] concerns human colon tumor Lovo cells. Nature of the series: Cell migration assay, Lovo cells. It counts as cell-based.
For series [8], the system named is 4T1 cells. The following applies: serum, Shan et al. 2005; cited from earlier work.
The target of series [9] is fascin (Homo sapiens, UniProt Q16658). Nature of the series: GST-fascin and biotin-macroketone interaction. It counts as binding. More on the design: made in house; host or cells: Escherichia coli BL21. Particulars: excess unlabeled compound. Here is the method:
Whole cell lysates from 4T1 mouse breast tumor cells were made. After preclearing the cell lysate with immobilized neutravidin biotin binding protein (Pierce, IL, USA) to remove biotin and avidin-binding proteins, the cell lysates were loaded to a column packed with the biotin-labeled macroketone (conjugated to neutravidin beads). A control column packed with free biotin and neutravidin beads was run side-by-side. After washing the column with 10 bed volumes of lysis buffer with 300 mM NaCl, the bound proteins were eluted with 0.1 M Glycine-HCl at pH 2.8 according to the manufacturer's instruction. […] Protein Expression and Purification. Recombinant GST-fascin fusion protein was produced in BL21 Escherichia coli. A 1-liter culture was grown to an A600 reading of 1.0 and then induced by addition of 0.3 mM isopropyl 1-thio-D-galactopyranoside (IPTG) for 12 hours at 25° C. Cells were flash frozen and then lysed by sonication in Tris-buffered saline. The supernatant was then incubated with glutathione-Sepharose for 2 h at 4° C. After extensive washing, GST-fascin was eluted and concentrated with a Centricon Plus-20 (Millipore). To remove the GST tag from the fusion protein, beads were incubated with thrombin overnight at 4° C. The supernatant was collected and concentrated. GST-fascin and Biotin-macroketone Interaction. […] Proteins associated with biotin-macroketone were precipitated with Untralink-immobilized NeutrAvidin agarose (Pierce). After extensive washing, bound proteins were eluted with SDS sample buffer and resolved by 10% SDS-PAGE. F-Actin Bundling Assay. Actin bundling activity was measured by low speed centrifugation assay and fluorescence microscopy. In low-speed centrifugation assay, monomeric rabbit G-actin was induced to polymerize at room temperature in F-actin buffer (20 mM Tris-HCl at pH 8, 1 mM ATP, 1 mM DTT, 2 mM MgCl2 and 100 mM KCl). Recombinant fascin proteins or control buffer were subsequently incubated with F-actin for 60 min at room temperature and centrifuged for 30 min at 10,000 g in an Eppendorf 5415D table-top centrifuge.

Series [10] deals with 4T1 tumor cells. The series is described as follows: 4T1 mouse mammary tumor model, spontaneous lung metastasis. It counts as in vivo.
The subject of series [11] is 4T1 cells. Particulars: read-out: IC50, 4T1 cell migration, cited from earlier work.
The conditions of series [12]: Gaul et al. 2004; cited from earlier work.
Series [13] concerns several types of tumor cells. Particulars: Nakae et al. 2000, cited from earlier work.
Setting [14] is: Njardarson et al. 2004, Gaul et al. 2004.

As to `COC1C=CCCCCC(=O)NCC(C)=CC(C)C1O` (centres unmarked) [macrolactam, Migrastatin lactam], the “inhibition of serum-induced migration (wound-healing)” value in series [1] and in [3] was “inhibited the migration” throughout. Further, the IC50 in series [2] is 0.255 µM. For the same compound, the “effect on serum-induced migration (wound-healing)” value in [4] was “had no effect”. Besides, the inhibition of migration result in series [5], in series [6] and in series [7] was “inhibited the migration” each time. In addition, the “formation of lamellipodia at the leading edge” value in [8] is recorded as “inhibited the formation of lamellipodia”. In addition, the “competition of binding of biotin-conjugated macroketone to fascin” value in series [9] is recorded as “competed the binding”.

On to `COC1C=CCCCCC(=O)OCC(C)=CC(C)C1O` (centres unmarked) [macrolactone], for which, in series [10] (20 mg/kg), the “effect on 4T1 tumor metastasis” value is “statistically significant, it was much less than those of macroketone and macrolactam”. In addition, the IC50 in series [11] (macrolactone, Gaul et al. 2004) was 0.024 µM. Moreover, the “half-life in mouse plasma” value in series [12] is less than 5 min.

On to `CO[C@H]1/C=C/CC/C=C/C(=O)OC([C@H](C)C(=O)CCCC2CC(=O)NC(=O)C2)/C(C)=C\[C@@H](C)[C@@H]1O` (some centres unmarked) [migrastatin, Migrastatin], for which the IC50 in [11] (setting [14]) was 29 µM. The “biosyntheses of DNA, RNA, and protein” value in series [13] is recorded as “has no effect”. For the same compound, in [13] (high micromolar concentrations), the “migration of tumor cells in vitro” value is recorded as “inhibits the migration”.

Regarding `C=CC(OC)C(O[Si](C)(C)C(C)(C)C)C(C)C=C(C)CO` (centres unmarked) [migrastatin semi-core, reference compound], the “effect on 4T1 tumor metastasis” value in [10] (10 and 20 mg/kg) was “did not significantly reduce”. In addition, the IC50 in series [11] (setting [14]) was 40 µM.
